Molecular target: T1, Bcl-2 protein (Homo sapiens, UniProt P10415, DELINS35-91DVEENRTEAPEGTESE, form not given)
T1 construct: fused on or other part: Bcl-xL (Q07817) residues 29-44 stand in place of Bcl-2's own unstructured loop 35-91; The C-terminal membrane anchor (208-239) is absent
Assay: Bcl-2 fluorescence polarization assay (FPA) binding
Details: 10 nM Bcl-2 protein, 1 nM fluorescein-labeled BAX peptide, room temperature, read-out: Bcl-2 FPA 11pt Ki
Description: Assays for the inhibition of Bcl-2 were performed in 96-well microtiter plates. Compounds of the instant invention were diluted in DMSO to concentrations between […] and 10 pM and introduced into each well of the plate. A mixture totaling 125 µL per well of assay buffer (20 mM phosphate buffer (pH 7.4), 1 mM EDTA, 0.05% PF-68), 10 nM of Bcl-2 protein (prepared according to the procedure described in PNAS 2001, 98, 3012-3017), 1 nM fluorescein-labeled BAX peptide (prepared in-house), and the DMSO solution of the compound of the instant invention was shaken for 2 minutes and placed in a LJL Analyst (LJL Bio Systems, CA. Polarization was measured at room temperature using a continuous Fluorescein lamp (excitation 485 nm, emission 530 nm). Ki values were calculated using Microsoft Excel.

T1 sequence (P10415 with tags, fused parts or gaps with the stated changes): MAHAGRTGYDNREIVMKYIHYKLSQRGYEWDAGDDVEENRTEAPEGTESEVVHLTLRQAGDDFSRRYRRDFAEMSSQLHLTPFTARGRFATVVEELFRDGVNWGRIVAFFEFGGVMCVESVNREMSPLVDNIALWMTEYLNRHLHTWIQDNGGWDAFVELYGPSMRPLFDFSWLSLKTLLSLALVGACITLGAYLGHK

Ki [nM] | Molecule
149 | CC1(C)C2C=C(c3ccccc3CN3CCN(c4ccc(C(=O)NS(=O)(=O)c5ccc(NCC6CCOCC6)c([N+](=O)[O-])c5)cc4)CC3)C1(C(=O)NC1CC1)CC2 (centres unmarked) [Example 38, N-cyclopropyl-7,7-dimethyl-2-{2-[(4-{4-[({3-nitro-4-[(tetrahydro-2H-pyran-4-ylmethyl)amino]phenyl}sulfonyl)carbamoyl]phenyl}piperazin-1-yl)methyl]phenyl}bicyclo[2.2.1]hept-2-ene-1-carboxamide]
29.6 | CC1C2CC(C=C2c2ccccc2CN2CCN(c3ccc(C(=O)NS(=O)(=O)c4ccc(NCC5CCOCC5)c([N+](=O)[O-])c4)cc3)CC2)C1(C)C (centres unmarked) [Example 28, N-({3-nitro-4-[(tetrahydro-2H-pyran-4-ylmethyl)amino]phenyl}sulfonyl)-4-(4-{2-[5,5,6-trimethylbicyclo[2.2.1]hept-2-en-2-yl]benzyl}piperazin-1-yl)benzamide]
< 20 | O=C(NS(=O)(=O)c1ccc(NCC2CCOCC2)c([N+](=O)[O-])c1)c1ccc(N2CCC(=Cc3ccccc3-c3ccc(CN4C5CCCC4CC5)s3)CC2)cc1 [Example 71, 4-[4-(2-{5-[8-azabicyclo[3.2.1]oct-8-ylmethyl]-2-thienyl}benzylidene)piperidin-1-yl]-N-({3-nitro-4-[(tetrahydro-2H-pyran-4-ylmethyl)amino]phenyl}sulfonyl)benzamide]
> 6250 | O=C(NS(=O)(=O)c1ccc(NC2CCOCC2)c([N+](=O)[O-])c1)c1ccc(N2CC3CN(C(=O)C45CC6CC(CC(C6)C4)C5)CC32)cc1 [Example 44, 4-{1S,5S)-3-[adamantan-1-ylcarbonyl]-3,6-diazabicyclo[3.2.0]hept-6-yl}-N-{[3-nitro-4-(tetrahydro-2H-pyran-4-ylamino)phenyl]sulfonyl}benzamide]
174 | C[C@@H]1[C@H]2C[C@@H](C[C@H]1Nc1ccc(S(=O)(=O)NC(=O)c3ccc(N4CCN(Cc5ccccc5-c5ccc(Cl)cc5)CC4)cc3)cc1[N+](=O)[O-])C2(C)C [Example 1, 4-{4-[(4′-chlorobiphenyl-2-yl)methyl]piperazin-1-yl}-N-[(3-nitro-4-{[(1R,2R,3R,5S)-2,6,6-trimethylbicyclo[3.1.1]hept-3-yl]amino}phenyl)sulfonyl]benzamide]
> 51900 | CC1(C)CCC(NCC2C3CC4CC(C3)CC2C4)C(CN2CCN(c3ccc(C(=O)NS(=O)(=O)c4ccc(NCC5CCOCC5)c([N+](=O)[O-])c4)cc3)CC2)C1 (centres unmarked) [Example 20, 4-{4-[(2-{[adamantan-2-ylmethyl]amino}-5,5-dimethylcyclohexyl)methyl]piperazin-1-yl}-N-({3-nitro-4-[(tetrahydro-2H-pyran-4-ylmethyl)amino]phenyl}sulfonyl)benzamide]
< 20 | CC1(C)[C@H]2CCC(Nc3ccccc3CN3CCN(c4ccc(C(=O)NS(=O)(=O)c5ccc(NCC6CCOCC6)c([N+](=O)[O-])c5)cc4)CC3)[C@@H]1C2 (stereo partly drawn) [Example 18, 4-[4-(2-{[(1R,5S)-6,6-dimethylbicyclo[3.1.1]hept-2-yl]amino}benzyl)piperazin-1-yl]-N-({3-nitro-4-[(tetrahydro-2H-pyran-4-ylmethyl)amino]phenyl}sulfonyl)benzamide]
47.7 | O=C(NS(=O)(=O)c1ccc(NCC2CCOCC2)c([N+](=O)[O-])c1)c1ccc(N2CCN(Cc3ccccc3C3=CC4CC5CC(C4)CC3C5)CC2)cc1 [Example 34, N-({3-nitro-4-[(tetrahydro-2H-pyran-4-ylmethyl)amino]phenyl}sulfonyl)-4-(4-{2-[tricyclo[4.3.1.1^3,8]undec-4-en-4-yl]benzyl}piperazin-1-yl)benzamide]
2880 | C[C@@H]1[C@H]2C[C@@H](C[C@H]1Oc1ccc(C(=O)NS(=O)(=O)c3ccc(NC4CCOCC4)c([N+](=O)[O-])c3)cc1)C2(C)C [Example 85, N-{[3-nitro-4-(tetrahydro-2H-pyran-4-ylamino)phenyl]sulfonyl}-4-{[(1R,2R,3R,5S)-2,6,6-trimethylbicyclo[3.1.1]hept-3-yl]oxy}benzamide]
< 20 | CC1(C)[C@H]2C=C(c3ccccc3CN3CCN(c4ccc(C(=O)NS(=O)(=O)c5ccc(NCC6CCOCC6)c([N+](=O)[O-])c5)cc4)CC3)[C@]1(C)CC2 [Example 15, N-({3-nitro-4-[(tetrahydro-2H-pyran-4-ylmethyl)amino]phenyl}sulfonyl)-4-(4-{2-[(1R,4R)-1,7,7-trimethylbicyclo[2.2.1]hept-2-en-2-yl]benzyl}piperazin-1-yl)benzamide]
251 | O=C(NS(=O)(=O)c1ccc(NCC2CCOCC2)c([N+](=O)[O-])c1)c1ccc(N2CCC(=Cc3ccccc3-c3ccc(-c4nc(-c5ccccc5)cs4)s3)CC2)cc1 [Example 75, N-({3-nitro-4-[(tetrahydro-2H-pyran-4-ylmethyl)amino]phenyl}sulfonyl)-4-(4-{2-[5-(4-phenyl-1,3-thiazol-2-yl)-2-thienyl]benzylidene}piperidin-1-yl)benzamide]
84.6 | O=C(NS(=O)(=O)c1ccc(NCC2CCCCC2)c([N+](=O)[O-])c1)c1ccc(N2CCC3CC2CN3CC23CC4CC(CC(C4)C2)C3)cc1 (centres unmarked) [Example 8, 4-{6-[adamantan-1-ylmethyl]-2,6-diazabicyclo[3.2.1]oct-2-yl}-N-({4-[(cyclohexylmethyl)amino]-3-nitrophenyl}sulfonyl)benzamide]
93.2 | C[C@@H]1[C@@H](Nc2cccc(C=C3CCN(c4ccc(C(=O)NS(=O)(=O)c5ccc(NCC6CCOCC6)c([N+](=O)[O-])c5)cc4)CC3)c2)C[C@H]2C[C@@H]1C2(C)C [Example 73, N-({3-nitro-4-[(tetrahydro-2H-pyran-4-ylmethyl)amino]phenyl}sulfonyl)-4-[4-(3-{[(1S,2S,3S,5R)-2,6,6-trimethylbicyclo[3.1.1]hept-3-yl]amino}benzylidene)piperidin-1-yl]benzamide]
1390 | O=C(CCN(Cc1ccccc1)C(=O)CC12CC3CC(CC(C3)C1)C2)NS(=O)(=O)c1ccc(NCC2CCCCC2)c([N+](=O)[O-])c1 [Example 52, N^3-[adamantan-1-ylacetyl]-N^3-benzyl-N-({4-[(cyclohexylmethyl)amino]-3-nitrophenyl}sulfonyl)-beta-alaninamide]
39.7 | O=C(NS(=O)(=O)c1ccc(NCC2CCOCC2)c([N+](=O)[O-])c1)c1ccc(N2CCN(Cc3ccccc3NC3CC4CC3C3CCCC43)CC2)cc1 (centres unmarked) [Example 16]
5190 | O=C(NS(=O)(=O)c1ccc(NC2CCOCC2)c([N+](=O)[O-])c1)c1ccc(N2CCN(C(=O)C34CC5CC(CC(C5)C3)C4)CC2)cc1 [Example 41, 4-{4-[adamantan-1-ylcarbonyl]piperazin-1-yl}-N-{[3-nitro-4-(tetrahydro-2H-pyran-4-ylamino)phenyl]sulfonyl}benzamide]
102 | O=C(NS(=O)(=O)c1ccc(NCC2CCOCC2)c([N+](=O)[O-])c1)c1ccc(N2CCC(=Cc3ccccc3-c3ccc(-c4nc(C56CC7CC(CC(C7)C5)C6)cs4)s3)CC2)cc1 [Example 74, 4-[4-(2-{5-[4-(adamantan-1-yl)-1,3-thiazol-2-yl]-2-thienyl}benzylidene)piperidin-1-yl]-N-({3-nitro-4-[(tetrahydro-2H-pyran-4-ylmethyl)amino]phenyl}sulfonyl)benzamide]
608 | CC12CC3CC(C)(C1)CC(CN1CCN(c4ccc(C(=O)NS(=O)(=O)c5ccc(NCC6CCCCC6)c([N+](=O)[O-])c5)cc4)CC1)(C3)C2 [Example 13, N-({4-[(cyclohexylmethyl)amino]-3-nitrophenyl}sulfonyl)-4-(4-{[3,5-dimethyladamantan-1-yl]methyl}piperazin-1-yl)benzamide]
54.7 | O=C(NS(=O)(=O)c1ccc(NCC2CCOCC2)c([N+](=O)[O-])c1)c1ccc(N2CCN(Cc3ccccc3-c3ccc(CN4C5CCCC4CC5)s3)CC2)cc1 [Example 40, 4-[4-(2-{5-[8-azabicyclo[3.2.1]oct-8-ylmethyl]-2-thienyl}benzyl)piperazin-1-yl]-N-({3-nitro-4-[(tetrahydro-2H-pyran-4-ylmethyl)amino]phenyl}sulfonyl)benzamide]
155 | C[C@@H]1[C@@H](Nc2ccc(-c3ccc(C(=O)NS(=O)(=O)c4ccc(NCC5CCCCC5)c([N+](=O)[O-])c4)cc3)cc2)C[C@H]2C[C@@H]1C2(C)C [Example 6, N-({4-[(cyclohexylmethyl)amino]-3-nitrophenyl}sulfonyl)-4′-{[(1S,2S,3S,5R)-2,6,6-trimethylbicyclo[3.1.1]hept-3-yl]amino}biphenyl-4-carboxamide]
342 | O=C(NS(=O)(=O)c1ccc(NCC2CCCCC2)c([N+](=O)[O-])c1)c1ccc(N2CCN(CC(=O)C34CC5CC(CC(C5)C3)C4)CC2)cc1 [Example 49, 4-(4-{2-[adamantan-1-yl]-2-oxoethyl}piperazin-1-yl)-N-({4-[(cyclohexylmethyl)amino]-3-nitrophenyl}sulfonyl)benzamide]
35.4 | O=C(NS(=O)(=O)c1ccc(NCC2CCOCC2)c([N+](=O)[O-])c1)c1ccc(N2CCN(Cc3ccccc3N(C(=O)CCc3ccccc3)C3CC4CC3C3CCCC43)CC2)cc1 (centres unmarked) [Example 70, N-({3-nitro-4-[(tetrahydro-2H-pyran-4-ylmethyl)amino]phenyl}sulfonyl)-4-(4-{2-[octahydro-1H-4,7-methanoinden-5-yl(3-phenylpropanoyl)amino]benzyl}piperazin-1-yl)benzamide]

Molecule | Ki [nM]
N-(adamantan-2-yl)-6-methyl-8-{2-[(4-{4-[({3-nitro-4-[(tetrahydro-2H-pyran-4-ylmethyl)amino]phenyl}sulfonyl)carbamoyl]phenyl}piperazin-1-yl)methyl]phenyl}imidazo[1,2-a]pyridine-2-carboxamide [Example 26] | 1170

From US8188077B2, “Apoptosis-inducing agents for the treatment of cancer and immune and autoimmune diseases” (Abbott Laboratories, priority 2010, dated 2012)
